Laboratory results as given in patent US7332486B2, “Phosphodiesterase 4 inhibitors” (Memory Pharmaceuticals Corp., priority 2002, dated 2008).
Where a name gives a salt, the structure may show the parent alone.

Tests used:
[1] = Solubility of the mesylate salt in H2O; format: physicochemical
Procedure: To obtain the methansulphonate salt (mesylate salt), 4 ml of 0.1N CH3SO3H in EtOAc was added to a solution of 145 mg (0.4 mmol) 6-cyclopropylamino-9-(2-fluorobenzyl)-2-trifluoromethylpurine in EtOAc. Then, 1 ml of hexane was added to a warm solution and the resultant mixture was allowed to crystallize (within a refrigerator). The solid was collected to give 148 mg of the mesylate salt. […] M.p. 167.5-169.0 C; m.p. 114-118 C for free base.

rats [2] = assay: Passive avoidance in rats, an in vivo test for learning and memory; set-up: species or system rat; conditions: MK-801 0.1 mg/kg pretreatment, compared to the vehicle, p<0.001, 24 hours after electric shock
Procedure: The test was performed as previously described (Zhang, H.-T., Crissman, A. M., Dorairaj, N. R., Chandler, L. J., and O'Donnell, J. M., Neuropsychopharmacology, 2000, 23, 198-204.). The apparatus (Model E10-16SC, Coulbourn Instruments, Allentown, Pa.) consisted of a two-compartment chamber with an illuminated compartment connected to a darkened compartment by a guillotine door. The floor of the darkened compartment consisted of stainless steel rods through which an electric foot-shock could be delivered from a constant current source. All experimental groups were first habituated to the apparatus the day before the start of the experiment. During the training, the rat (Male Spraque-Dawley (Harlan) weighing 250 to 350 g) was placed in the illuminated compartment facing away from the closed guillotine door for 1 minute before the door was raised. The latency for entering the darkened compartment was recorded. After the rat entered the darkened compartment, the door was closed and a 0.5 mA electric shock was administered for 3 seconds. […] The latency for entering the darkened compartment was recorded for up to 180 seconds, at which time the trial was terminated.
(§1) All data were analyzed by analyses of variance (ANOVA); individual comparisons were made using Kewman-Keuls tests. […]

rats [3] = assay: Radial arm maze task in rats, an in vivo test for learning and memory; set-up: species or system rat; conditions: MK-801 0.1 mg/kg, i.p., compared to control, p<0.01
Procedure: The test was performed as previously described (Zhang, H.-T., Crissman, A. M., Dorairaj, N. R., Chandler, L. J., and O'Donnell, J. M., Neuropsychopharmacology, 2000, 23, 198-204.). Five days after initial housing, rats (male Spraque-Dawley (Harlan) weighing 250 to 350 g) were placed in the eight-arm radial maze (each arm was 60×10×12 cm high; the maze was elevated 70 cm above the floor) for acclimation for two days. Rats were then placed individually in the center of the maze for 5 minutes with food pellets placed close to the food wells, and then, the next day, in the wells at the end of the arms; 2 sessions a day were conducted. Next, four randomly selected arms were then baited with one pellet of food each. The rat was restricted to the center platform (26 cm in diameter) for 15 seconds and then allowed to move freely throughout the maze until it collected all pellets of food or 10 minutes passed, whichever came first. Four parameters were recorded: 1) working memory errors, i.e., entries into baited arms that had already been visited during the same trial; 2) reference memory errors, i.e., entries into unbaited arms; 3) total arm entries; and 4) the test duration (seconds), i.e., the time spent in the collection of all the pellets in the maze. […]
as §1

SMILES | solubility in H2O [1] | latency for entering the darkened compartment (retention test) (rats [2]) | frequency of reference memory errors (rats [3]) | frequency of working memory errors (rats [3])
Fc1ccccc1Cn1cnc2c(NC3CC3)nc(C(F)(F)F)nc21 [Example 4 mesylate salt, 6-cyclopropylamino-9-(2-fluorobenzyl)-2-trifluoromethylpurine] | relatively insoluble |  |  | 
C[C@]12N[C@H](Cc3ccccc31)c1ccccc12 [MK-801] |  | markedly reduced | increased | increased
